Experimental findings from PubChem BioAssay (NCI) are described below.

Test systems include T-47D breast; SR leukemia; NCI-H460 lung; IGROV1 ovarian; K-562 leukemia; HOP-92 NSCLC; SNB-75 CNS; UACC-62 melanoma; ACHN renal; M14 melanoma; SK-MEL-28 melanoma; UO-31 renal; HS 578T breast; DU-145 prostate; SN12C renal; SF-539 CNS; HOP-62 NSCLC; MDA-N; BT-549 breast; A498 renal.
What all share (experiment): NCI anticancer screen, dose series, 48 h

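Briefly, cells in 96-well plates were exposed to five compound concentrations for 48 h, and endpoints were estimated by linear interpolation. Definition used: TGI = concentration required for complete inhibition of growth.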

`O=c1c2ccccc2nc(-c2cc3c(cc2Cl)Sc2nccn2S3(=O)=O)n1-c1ccccc1`: the TGI in the experiment on T-47D breast is 23.8 µM; with SR leukemia it was over 100 µM; in the experiment on NCI-H460 lung it was over 100 µM; with IGROV1 ovarian it was over 100 µM; in the experiment with K-562 leukemia, over 100 µM; in the experiment with HOP-92 NSCLC, 58.5 µM. In addition, the TGI in the experiment on SNB-75 CNS was 52.2 µM; in the experiment with UACC-62 melanoma, 71.7 µM; in the experiment on ACHN renal, over 100 µM; in the experiment on M14 melanoma, over 100 µM; in the experiment on SK-MEL-28 melanoma, 41.8 µM; in the experiment with UO-31 renal, 31.7 µM. The TGI in the experiment with HS 578T breast was 42.7 µM; in the experiment with DU-145 prostate, 51.8 µM; in the experiment on SN12C renal, over 100 µM; with SF-539 CNS, 40.5 µM; in the experiment on HOP-62 NSCLC it was 35.7 µM; in the experiment with MDA-N, 33.8 µM. This molecule also came in with a TGI with BT-549 breast of over 100 µM.

With `O=C1N=C(SC(SC2=NC(=O)C3(NN2)c2ccccc2-c2ccccc23)=C(SC2=NC(=O)C3(NN2)c2ccccc2-c2ccccc23)SC2=NC(=O)C3(NN2)c2ccccc2-c2ccccc23)NNC12c1ccccc1-c1ccccc12`, the TGI in the experiment on T-47D breast, in the experiment on SR leukemia, in the experiment on NCI-H460 lung, with IGROV1 ovarian, with K-562 leukemia and with HOP-92 NSCLC was over 10 µM in each case. For the same molecule, the TGI with SNB-75 CNS was over 10 µM; in the experiment with UACC-62 melanoma it was over 10 µM; with ACHN renal it was 9.09 µM; in the experiment on M14 melanoma it was over 10 µM; with SK-MEL-28 melanoma it was over 10 µM; in the experiment on UO-31 renal, over 10 µM. Also, the TGI in the experiment with HS 578T breast, in the experiment on DU-145 prostate, in the experiment on SN12C renal, in the experiment on SF-539 CNS, in the experiment with HOP-62 NSCLC and in the experiment with MDA-N was over 10 µM each time. This molecule registered a TGI in the experiment with BT-549 breast of over 10 µM.

Regarding `O=C(c1ccccc1)n1c(Cc2ccccc2)nc2cc(C34CC5CC(CC(C5)C3)C4)ccc21`, the TGI in the experiment on T-47D breast, in the experiment on SR leukemia, in the experiment with NCI-H460 lung, in the experiment on IGROV1 ovarian, in the experiment on K-562 leukemia and with HOP-92 NSCLC was over 100 µM throughout. Besides, the TGI in the experiment with A498 renal, in the experiment on SNB-75 CNS, in the experiment on UACC-62 melanoma, with ACHN renal, in the experiment on M14 melanoma and in the experiment with SK-MEL-28 melanoma was over 100 µM throughout. The TGI with UO-31 renal, with HS 578T breast, in the experiment with DU-145 prostate, in the experiment on SN12C renal, in the experiment on HOP-62 NSCLC and in the experiment with MDA-N was over 100 µM in each case. The molecule further registered a TGI in the experiment with BT-549 breast of over 100 µM.

As to `Fc1ccc(C(OCCN2CCN(CCCCl)CC2)c2ccc(F)cc2)cc1`, the TGI with T-47D breast was 52.5 µM; in the experiment with SR leukemia, 61.9 µM; in the experiment with NCI-H460 lung, 55.5 µM; with IGROV1 ovarian, 86.4 µM; with K-562 leukemia, 60.7 µM; in the experiment on HOP-92 NSCLC, 49 µM. Further, the TGI with A498 renal is 46.4 µM; with UACC-62 melanoma, 40.7 µM; in the experiment on ACHN renal, over 100 µM; with M14 melanoma, 39.5 µM; in the experiment on SK-MEL-28 melanoma, over 100 µM; with UO-31 renal, over 100 µM. In addition, the TGI in the experiment with HS 578T breast was 83.8 µM; in the experiment on DU-145 prostate, 73.7 µM; in the experiment on SN12C renal it was 69.4 µM; in the experiment on SF-539 CNS, 34.6 µM; with HOP-62 NSCLC, over 100 µM; with MDA-N, 45 µM. In the experiment on BT-549 breast, the TGI is 83.6 µM.

With `C[C@]12CC[C@@H]3c4ccc(O)cc4CC[C@H]3[C@@H]1CC[C@@H]2OP(=O)(O)O`, the TGI with T-47D breast, in the experiment with NCI-H460 lung, in the experiment with IGROV1 ovarian, in the experiment on K-562 leukemia, in the experiment on HOP-92 NSCLC and in the experiment with A498 renal was over 100 µM in each case. Further, the TGI in the experiment on SNB-75 CNS, in the experiment on UACC-62 melanoma, with ACHN renal, in the experiment on M14 melanoma, with SK-MEL-28 melanoma and in the experiment on UO-31 renal was over 100 µM throughout. The TGI in the experiment with HS 578T breast, with DU-145 prostate, in the experiment with SN12C renal, with SF-539 CNS, in the experiment on HOP-62 NSCLC and with MDA-N was over 100 µM each time. This molecule also showed a TGI in the experiment on BT-549 breast of over 100 µM.

Consider `N=C(N)C1CN(CCCCCCCCCCN2CC(C(=N)N)C(=O)NC2=O)C(=O)NC1=O` (stereo unspecified), for which the TGI with T-47D breast, in the experiment on SR leukemia, with NCI-H460 lung, with IGROV1 ovarian, with K-562 leukemia and in the experiment on HOP-92 NSCLC was over 10 µM in each case. Moreover, the TGI in the experiment with A498 renal, with SNB-75 CNS, in the experiment with UACC-62 melanoma, in the experiment on ACHN renal, with M14 melanoma and in the experiment with HS 578T breast was over 10 µM in each case. For the same molecule, the TGI in the experiment on SN12C renal, in the experiment on SF-539 CNS, in the experiment with HOP-62 NSCLC, with MDA-N and in the experiment with BT-549 breast was over 10 µM throughout.

Consider `CN(CCNC(=O)c1nn(-c2ccccc2)c2c1Cc1ccccc1-2)CCNC(=O)c1nn(-c2ccccc2)c2c1Cc1ccccc1-2`, for which the TGI in the experiment on T-47D breast was over 22.5 µM; in the experiment on NCI-H460 lung it was 3.15 µM; in the experiment with IGROV1 ovarian it was 3.31 µM; in the experiment with K-562 leukemia it was 6.59 µM; with HOP-92 NSCLC, 3.01 µM; in the experiment on A498 renal, 3.36 µM. Moreover, the TGI in the experiment with SNB-75 CNS is 3.5 µM; in the experiment with UACC-62 melanoma, 3.1 µM; with ACHN renal, 3.44 µM; with M14 melanoma, 3.27 µM; in the experiment with SK-MEL-28 melanoma it was 3.24 µM; with UO-31 renal it was 3.22 µM. The TGI in the experiment with HS 578T breast stood at 3.77 µM; in the experiment on DU-145 prostate, 6.75 µM; in the experiment on SN12C renal, 3.61 µM; in the experiment with SF-539 CNS, 4.11 µM; with HOP-62 NSCLC, 3.6 µM; in the experiment on MDA-N, 3.16 µM. In the experiment on BT-549 breast, this molecule yielded a TGI of 18.7 µM.
